Results from patent US20220009922A1, “NOVEL UREA 6,7-DIHYDRO-4H-PYRAZOLO[4,3-C]PYRIDINES ACTIVE AGAINST THE HEPATITIS B VIRUS (HBV)” (AiCuris GmbH & Co. KG, priority 2018, published 2022).
pEC50: −log10 of the molar value. Read-outs that look alike come from different tables or passages of the source.

Experiments:
HBV = details: read-out: Cell Activity (EC50)
HepAD38 cells = test: Cell viability assay (AlamarBlue) in HepAD38 cells; details: HepAD38 cells in the presence of 0.3 μg/ml tetracycline, six days incubation
[1] = Hepatitis B virus, HePAD38, 144 h

CN(C(=O)c1[nH]nc2c1CN(C(=O)Nc1ccc(F)c(Cl)c1)CC2)C1(COC(=O)C2(N)CC2)CC1 [Example 10, (1-{-methyl5-[(3-chloro-4-fluorophenyl)carbamoyl]-2H,4H,5H, 6H,7H-pyrazolo[4,3-c]pyridine-3-amido}cyclopropyl)methyl 1-aminocyclopropane-1-carboxylate]
pEC50 (HBV; [1]): > 6.00

COCC1(N(C)C(=O)c2n[nH]c3c2CN(C(=O)Nc2ccc(F)c(Cl)c2)CC3)CC1 [Example 2, N5-(3-chloro-4-fluorophenyl)-N3-[1-(methoxymethyl)cyclopropyl]-N3-methyl-1H,4H,5H,6H,7H-pyrazolo[4,3-c]pyridine-3,5-dicarboxamide]
pEC50 (HBV; [1]): > 6.00

O=C(Nc1ccc(F)c(Cl)c1)N1CCc2n[nH]c(C(=O)N3CCCOCC34CC4)c2C1 [Example 11, N-(3-chloro-4-fluorophenyl)-3-{8-oxa-4-azaspiro[2.6]nonane-4-carbonyl}-2H,4H,5H,6H,7H-pyrazolo[4,3-c]pyridine-5-carboxamide]
pEC50 (HBV; [1]): > 6.00

CC1Cc2n[nH]c(C(=O)N3CC(F)(F)CC34CC4)c2CN1C(=O)Nc1ccc(F)c(Cl)c1 (single isomer, unassigned) [Example 9, N-(3-chloro-4-fluorophenyl)-3-{6,6-difluoro-4-azaspiro[2.4]heptane-4-carbonyl}-6-methyl-2H,4H,5H,6H,7H-pyrazolo[4,3-c]pyridine-5-carboxamide]
CC50 (HepAD38 cells): > 10000 nM | pEC50 (HBV; HepAD38 cells, HBV DNA in supernatant at day 6, qPCR): > 6.00

CC1Cc2n[nH]c(C(=O)N3CC(F)(F)CC34CC4)c2CN1C(=O)Nc1ccc(F)c(Cl)c1 (single isomer, unassigned) [Example 8, N-(3-chloro-4-fluorophenyl)-3-{6,6-difluoro-4-azaspiro[2.4]heptane-4-carbonyl}-6-methyl-2H,4H,5H,6H,7H-pyrazolo[4,3-c]pyridine-5-carboxamide]
pEC50 (HBV; [1]): > 6.00

CN(C(=O)c1n[nH]c2c1CN(C(=O)Nc1ccc(F)c(Cl)c1)CC2)C1(CO)CC1 [Example 3, N5-(3-chloro-4-fluorophenyl)-N3-[1-(hydroxymethyl)cyclopropyl]-N3-methyl-1H,4H,5H,6H,7H-pyrazolo[4,3-c]pyridine-3,5-dicarboxamide]
pEC50 (HBV; [1]): > 6.00

O=C(Nc1ccc(F)c(Cl)c1)N1CCc2n[nH]c(C(=O)N3CC(F)(F)CC34CC4)c2C1 [Example 7, N-(3-chloro-4-fluorophenyl)-3-{6,6-difluoro-4-azaspiro[2.4]heptane-4-carbonyl}-2H,4H,5H,6H,7H-pyrazolo[4,3-c]pyridine-5-carboxamide]
pEC50 (HBV; [1]): > 6.00

O=C(Nc1ccc(F)c(Cl)c1)N1CCc2n[nH]c(C(=O)N3CCC(O)CC34CC4)c2C1 (stereo not shown) [Example 12, N-(3-chloro-4-fluorophenyl)-3-{7-hydroxy-4-azaspiro[2.5]octane-4-carbonyl}-2H,4H,5H,6H,7H-pyrazolo[4,3-c]pyridine-5-carboxamide]
pEC50 (HBV; [1]): > 6.00

COCC1(N(C)C(=O)c2n[nH]c3c2CN(C(=O)Nc2ccc(F)c(C#N)c2)CC3)CC1 [Example 4, N5-(3-cyano-4-fluorophenyl)-N3-[1-(methoxymethyl)cyclopropyl]-N3-methyl-1H,4H,5H,6H,7H-pyrazolo[4,3-c]pyridine-3,5-dicarboxamide]
pEC50 (HBV; [1]): > 6.00

CC(C)OCC1(N(C)C(=O)c2n[nH]c3c2CN(C(=O)Nc2ccc(F)c(Cl)c2)CC3)CC1 [Example 5, N5-(3-chloro-4-fluorophenyl)-N3-methyl-N3-{1-[(propan-2-yloxy)methyl]cyclopropyl}-1H,4H,5H,6H,7H-pyrazolo[4,3-c]pyridine-3,5-dicarboxamide]
pEC50 (HBV; [1]): > 6.00

CN(C(=O)c1n[nH]c2c1CN(C(=O)Nc1ccc(F)c(Cl)c1)CC2)C1(COC(F)F)CC1 [Example 1, N5-(3-chloro-4-fluorophenyl)-N3-{1-[(difluoromethoxy)methyl]cyclopropyl}-N3-methyl-1H,4H,5H,6H,7H-pyrazolo[4,3-c]pyridine-3,5-dicarboxamide]
pEC50 (HBV; [1]): > 6.00

CCOCC1(N(C)C(=O)c2n[nH]c3c2CN(C(=O)Nc2ccc(F)c(Cl)c2)CC3)CC1 [Example 6, N5-(3-chloro-4-fluorophenyl)-N3-[1-(ethoxymethyl)cyclopropyl]-N3-methyl-1H,4H,5H,6H,7H-pyrazolo[4,3-c]pyridine-3,5-dicarboxamide]
pEC50 (HBV; [1]): > 6.00
